Results published in BindingDB's records for doi:10.7270/Q2D50KC1 (The Scripps Research Institute Molecular Screening Center, 2007).

target: Sphingosine 1-phosphate receptor 3 (Homo sapiens, UniProt Q99500); assay: S1P3 receptor NFAT-BLA reporter inhibition, dose response, counter-screen for 5HT1E antagonist project, CHO cells, Ga15, NFAT beta-lactamase, FRET (AID 776)
Sequence (Q99500 whole entry): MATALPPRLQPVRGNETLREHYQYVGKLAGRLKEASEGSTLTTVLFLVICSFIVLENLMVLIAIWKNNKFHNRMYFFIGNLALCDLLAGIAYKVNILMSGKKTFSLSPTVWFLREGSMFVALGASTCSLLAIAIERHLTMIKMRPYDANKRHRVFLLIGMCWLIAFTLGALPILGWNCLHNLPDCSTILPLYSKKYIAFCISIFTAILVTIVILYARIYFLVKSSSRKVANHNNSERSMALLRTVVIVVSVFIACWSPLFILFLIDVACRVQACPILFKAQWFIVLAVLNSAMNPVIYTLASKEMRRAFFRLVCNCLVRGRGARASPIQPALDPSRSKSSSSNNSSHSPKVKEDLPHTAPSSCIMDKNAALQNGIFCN

SMILES	IC50 [µM]
CCN(CC)c1ccc2c(Cl)c(Br)c(=O)oc2c1	1.68
CCC(NC(=O)Nc1nnc(C(F)(F)F)s1)(C(F)(F)F)C(F)(F)F	> 12.4
CC(C)=CCC(C)(C)CNC(=O)NC1CCCCC1	> 50
O=C(Nc1ccc(-c2nc3ncccc3o2)cc1)c1ccc(Br)o1	> 50
O=S1(=O)C=C(Sc2nnc(-c3ccccc3)o2)c2ccccc21	2.33
CCCOCCOC(=O)c1[nH]c2c(c1C)C(=O)CC(c1cc(OC)ccc1OC)C2 (stereo not drawn)	> 39
OCC12C=CC(O1)c1c2c(O)n(-c2ccc(-c3ccccc3)cc2)c1O (stereo not drawn)	> 12.4
CCn1nc(-c2ccccc2)nc2c(=O)n(C)c(=O)nc1-2 [1-Ethyl-6-methyl-3-phenyl-1H-pyrimido[5,4-e][1,2,4]triazine-5,7-dione]	1.08
Cn1c(-c2c(N)n(C3CCCC3)c3nc4ccccc4nc23)nc2ccccc21 [1-cyclopentyl-3-(1-methyl-2-benzimidazolyl)-2-pyrrolo[3,2-b]quinoxalinamine]	2.04
CCn1nc(-c2cccs2)nc2c(=O)n(C)c(=O)nc1-2 [1-ethyl-6-methyl-3-thiophen-2-yl-pyrimido[5,4-e][1,2,4]triazine-5,7-dione]	0.815
COc1cc2c(cc1OC)-c1cc(N3CCCc4ccccc43)nc(=O)n1CC2 [2-(3,4-dihydro-2H-quinolin-1-yl)-9,10-dimethoxy-6,7-dihydropyrimido[6,1-a]isoquinolin-4-one]	> 17.7
COc1ccc(-n2nnnc2S(=O)(=O)CC(=O)N2CCCCC2)cc1 [2-[1-(4-methoxyphenyl)tetrazol-5-yl]sulfonyl-1-piperidin-1-ylethanone]	4.32
N#CCCS(=O)(=O)c1nnnn1-c1ccccc1 [3-(1-phenyltetrazol-5-yl)sulfonylpropanenitrile]	3.33
COc1ccc(-c2cc(C(F)(F)F)nc(S(C)(=O)=O)n2)cc1OC [4-(3,4-dimethoxyphenyl)-2-methylsulfonyl-6-(trifluoromethyl)pyrimidine]	5.18
COc1cccc(N2CCN(c3ncnc4c3[nH]c3ccccc34)CC2C)c1 (stereo not drawn) [4-[4-(3-methoxyphenyl)-3-methyl-1-piperazinyl]-5H-pyrimido[5,4-b]indole]	4.3
Cc1ccc(S(=O)(=O)Nc2cccc3ncccc23)s1 [5-methyl-N-quinolin-5-ylthiophene-2-sulfonamide]	> 39
CCOc1ccc(C2=Nn3c(nnc3-c3ccccc3OC)SC2)cc1 [6-(4-ethoxyphenyl)-3-(2-methoxyphenyl)-7H-[1,2,4]triazolo[3,4-b][1,3,4]thiadiazine]	> 12.4
Cc1ccc(-n2nc3c([n+]2[O-])CCc2c-3n[o+]n2[O-])cc1 [7-(4-methylphenyl)-3,6-dioxido-4,5-dihydrotriazolo[4,5-e][2,1,3]benzoxadiazole-3,6-diium]	5.78
COc1cccc(N2CCN(c3ncnc4c3[nH]c3ccc(F)cc34)CC2C)c1 (stereo not drawn) [8-fluoranyl-4-[4-(3-methoxyphenyl)-3-methyl-piperazin-1-yl]-5H-pyrimido[5,4-b]indole]	0.934
COc1ccccc1-c1nnc2n1N=C(c1ccc(O)c(O)c1)CS2 [(4E)-4-[3-(2-methoxyphenyl)-5H-[1,2,4]triazolo[3,4-b][1,3,4]thiadiazin-6-ylidene]-2-oxidanyl-cyclohexa-2,5-dien-1-one]	> 50
CC(=O)Nc1cc(OC(C)=O)c2nonc2c1OC(C)=O [Acetic acid 7-acetoxy-5-acetylamino-benzo[1,2,5]oxadiazol-4-yl ester]	1.82
COC(=O)Nc1nc2ccc(Sc3ccccc3)cc2[nH]1 [FENBENDAZOLE]	> 50

SMILES	IC50 [µM]
CCn1c(=O)c(C(=O)Nc2nc3ccccc3[nH]2)c(O)c2ccccc21 [MLS000027148]	> 12.4
CS(=O)(=O)c1nc(-c2ccccc2)cc(C(F)(F)F)n1 [MLS000044644]	3.51
CS(=O)(=O)c1nc(-c2cccs2)cc(C(F)(F)F)n1 [MLS000044645]	3.45
CS(=O)(=O)c1nc(-c2ccco2)cc(C(F)(F)F)n1 [MLS000044646]	4.88
N#C/C(=C/c1ccc(N2CCCCCC2)o1)c1ccc(F)cc1 [MLS000051438]	4.69
CCOc1cccc(-c2nnc3n2N=C(c2cc(OC)ccc2OC)CS3)c1 [MLS000081451]	> 17.7
COc1ccc(-n2c(O)cc(NCc3ccncc3)c2O)cc1 [MLS000099014]	> 50
CC(=O)Oc1ccc(-n2c(O)c3c(c2O)C2(C)C=CC3(C)O2)cc1 [MLS000107813]	7.56
O=C(Nc1ccc(N2CCOCC2)cc1)Nc1ccc2nc(-c3ccco3)c(-c3ccco3)nc2c1 [N-(2,3-di-2-furyl-6-quinoxalinyl)-N'-[4-(4-morpholinyl)phenyl]urea]	> 12.4
COc1cccc(N2CCN(c3ncnc4c3cnn4-c3ccc(C)cc3C)CC2)c1 [SMR000017007]	5.06
COCCOC(=O)c1[nH]c2c(c1C)C(=O)CC(c1ccccc1)C2 (stereo not drawn) [SMR000025505]	> 50
CCCc1nnc2n1N=C(c1ccc(OC)c(OC)c1)CS2 [SMR000057783]	> 50
CCCOc1ccc2nc(NC(=O)OC)[nH]c2c1 [SMR000058208]	> 50
Cc1ccc(N(CC2=NCCN2)c2cccc(O)c2)cc1 [SMR000059054]	> 50
Clc1ccc(-n2nnnc2Sc2ncnc3sccc23)cc1 [SMR000066808]	7.55
COc1cc(NS(=O)(=O)c2ccc(C)cc2)c2ncccc2c1 [SMR000071147]	> 39
CN(C)c1nc(OCCNC(=O)COc2ccc(Cl)cc2Cl)nc(N2CCCCC2)n1 [SMR000072558]	> 50
COc1cc2c(cc1OC)C1=C(C#N)CC=C(NS(=O)(=O)c3ccccc3)N1CC2 [SMR000092093]	> 50
COc1ccc(C2N(c3ccc(F)cc3)C(=O)C3CCCN32)cc1 (stereo not drawn) [SMR000094164]	> 50
CSc1ccccc1NC=C1C(=O)CC(C)(C)CC1=O [SMR000111352]	4.33
COC(=O)/C(=C1/Oc2cc(C)oc(=O)c2S1)C(F)(F)F [methyl (2E)-3,3,3-tris(fluoranyl)-2-(6-methyl-4-oxidanylidene-[1,3]oxathiolo[4,5-c]pyran-2-ylidene)propanoate]	1.42
